Results from patent US12162896B2, “Salts and polymorphs of certain MCL-1 inhibitors” (Gilead Sciences, Inc., priority 2022, dated 2024).
Structures can show the parent of a compound that is named as a salt.

Legend:
MCL-1 = MCL-1 (Homo sapiens, UniProt Q07820); conditions: stated in background, WO 2019/222112; cited from earlier work
[1] = Hygroscopicity by dynamic vapor sorption (DVS); type: physicochemical; conditions: for hygroscopicity (DVS analysis, in words): 0% to 90% RH, about 25° C.; for water (moisture) absorbed by DVS: between 0% and 90% RH at about 25° C.
Experimental: (§1) Hygroscopicity was studied using dynamic vapor sorption (DVS, TA Q5000 SA, TA Instruments, New Castle, DE or DVS, DVS Intrinsic, Surface Measurement Systems, London, UK). A sample (2-20 mg) was placed in an aluminum DVS pan and loaded on the sample side of the twin pan balance. The water sorption and desorption were studied as a function of relative humidity (RH) at 25° C. In 10% RH increments, the relative humidity was increased from 40% RH to 90% RH and then decreased back to 0%, followed by repeating the full cycle from 0% RH up to 90% RH and back to 0% RH. […] Data analysis was performed using Universal Analysis 2000 Version 4.5A (TA Instruments, New Castle, DE) for TA DVS runs and Microsoft Excel for SMS DVS runs.

[2] = XRPD analysis of the sample post DVS (form change); type: physicochemical; conditions: sample after DVS cycles at 25° C.
Experimental: X-ray powder diffraction (XRPD) analysis was conducted on a diffractometer (PANalytical XPERT-PRO, PANalytical B. V., Almelo, Netherlands) using copper radiation (Cu Kα, λ=1.541874). Samples were spread evenly on a zero-background sample plate. The generator was operated at a voltage of 45 kV and amperage of 40 mA. Slits were Soller 0.02 rad, antiscatter 1.0°, and divergence. Scans were performed from 2 to 40° 2−θ with a 0.0167 step size. Data analysis was performed using X'Pert Data Viewer V1.2d (PANalytical B.V., Almelo, Netherlands).
as §1

[3] = Competitive slurries of polymorph forms in EtOH; type: physicochemical; conditions: for outcome of competitive slurry with Form I: in EtOH

MCL-1, sequence (Q07820 whole entry, species assumed): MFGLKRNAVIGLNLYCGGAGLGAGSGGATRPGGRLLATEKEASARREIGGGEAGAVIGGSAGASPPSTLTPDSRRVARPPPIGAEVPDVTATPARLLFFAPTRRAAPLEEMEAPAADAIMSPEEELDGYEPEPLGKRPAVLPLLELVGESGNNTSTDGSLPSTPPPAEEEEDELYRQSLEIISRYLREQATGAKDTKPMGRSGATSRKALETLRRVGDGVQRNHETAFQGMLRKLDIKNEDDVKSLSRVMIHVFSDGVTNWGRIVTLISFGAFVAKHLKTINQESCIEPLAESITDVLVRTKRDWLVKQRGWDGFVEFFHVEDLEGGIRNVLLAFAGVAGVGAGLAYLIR

SMILES | MCL-1 inhibition (in words) (MCL-1) | hygroscopicity (DVS analysis, in words) [1] | water (moisture) absorbed by DVS [1] | form change by XRPD post DVS [2] | outcome of competitive slurry with Form I [3] | relative stability versus other unsolvated/desolvated forms ([3]; competitive slurries in EtOH) | moisture rapidly absorbed at ambient conditions ([1]; ambient conditions)
COc1nn(C)cc1C(=O)N[S@@]1(=O)=NC(=O)c2ccc3c(c2)N(C[C@@H]2CC[C@H]2[C@@H](OC)/C=C/C[C@H](C)C1)C[C@@]1(CCCc2cc(Cl)ccc21)CO3 [Compound 1] | effective MCL-1 inhibitor | – | – | – | – | – | –
COc1nn(C)cc1C(=O)N[S@@]1(=O)=NC(=O)c2ccc3c(c2)N(C[C@@H]2CC[C@H]2[C@@H](OC)/C=C/C[C@H](C)C1)C[C@@]1(CCCc2cc(Cl)ccc21)CO3 [DEA Salt Form 1] | – | moderately hygroscopic | about 5.5 wt % | no form change | – | – | –
COc1nn(C)cc1C(=O)N[S@@]1(=O)=NC(=O)c2ccc3c(c2)N(C[C@@H]2CC[C@H]2[C@@H](OC)/C=C/C[C@H](C)C1)C[C@@]1(CCCc2cc(Cl)ccc21)CO3 [Form III] | – | moderately hygroscopic | up to 5 wt % | no form change | full conversion to Form I | – | –
COc1nn(C)cc1C(=O)N[S@@]1(=O)=NC(=O)c2ccc3c(c2)N(C[C@@H]2CC[C@H]2[C@@H](OC)/C=C/C[C@H](C)C1)C[C@@]1(CCCc2cc(Cl)ccc21)CO3 [Form II] | – | slightly hygroscopic | up to 1.1 wt % | no form change | full conversion to Form I | – | –
COc1nn(C)cc1C(=O)N[S@@]1(=O)=NC(=O)c2ccc3c(c2)N(C[C@@H]2CC[C@H]2[C@@H](OC)/C=C/C[C@H](C)C1)C[C@@]1(CCCc2cc(Cl)ccc21)CO3 [Form IV] | – | – | – | – | full conversion to Form I | – | –
COc1nn(C)cc1C(=O)N[S@@]1(=O)=NC(=O)c2ccc3c(c2)N(C[C@@H]2CC[C@H]2[C@@H](OC)/C=C/C[C@H](C)C1)C[C@@]1(CCCc2cc(Cl)ccc21)CO3 [Form I] | – | slightly hygroscopic | about 1.4 wt % | no form change | – | higher stability | –
COc1nn(C)cc1C(=O)N[S@@]1(=O)=NC(=O)c2ccc3c(c2)N(C[C@@H]2CC[C@H]2[C@@H](OC)/C=C/C[C@H](C)C1)C[C@@]1(CCCc2cc(Cl)ccc21)CO3 [K Salt Form 1] | – | moderately hygroscopic | about 11 wt % | no form change | – | – | 4-6 wt %
COc1nn(C)cc1C(=O)N[S@@]1(=O)=NC(=O)c2ccc3c(c2)N(C[C@@H]2CC[C@H]2[C@@H](OC)/C=C/C[C@H](C)C1)C[C@@]1(CCCc2cc(Cl)ccc21)CO3 [Na salt Form 1] | – | moderately hygroscopic | about 7.5 wt % | no form change | – | – | –
